This note sets out measurements from patent US11952364B2, “TRK inhibitors useful as anticancer drugs” (TYLIGAND BIOSCIENCE (SHANGHAI) LIMITED, priority 2018, dated 2024).

Molecules are shown by their SMILES. Read-outs that look alike come from different tables or passages of the source.

The target of one series is BLK (Homo sapiens (Human), UniProt P51451). In words: KINOMEscan competition binding assay. As to the method: (§1) The experiment was performed according to the standard kinase activity determination protocol by Eurofins DiscoverX Corporation (11180 Roselle St. Suite D, San Diego, CA, USA, www.discoverX.com). Specifically, the experiment was conducted using the KINOMEscan™ screening platform, which adopts an active site-directed competition binding assay to quantitatively measure the interaction between test compounds and more than hundreds of human kinases and disease-related mutants. The working principle of the screening platform and kinase assay methods are well known in the art, for example, see www.discoverX.com.

In another series the target is CDKL2 (Homo sapiens (Human), UniProt Q92772). Put plainly: KINOMEscan competition binding assay. As to the method: as §1
In a further series the target is FLT3(N841I) (Homo sapiens (Human), UniProt P36888, N841I). Put plainly: KINOMEscan competition binding assay. As to the method:
as §1

A further series concerns the target IKK-beta (Homo sapiens (Human), UniProt O14920). Put plainly: KINOMEscan competition binding assay. As to the method: as §1
The target in the next series is LCK (Homo sapiens (Human), UniProt P06239). In words: KINOMEscan competition binding assay. As to the method:
as §1

The target in another series is MERTK (Homo sapiens (Human), UniProt Q12866). Put plainly: KINOMEscan competition binding assay. As to the method:
as §1

In another series the target is MET (Homo sapiens (Human), UniProt P08581). Put plainly: KINOMEscan competition binding assay. As to the method:
as §1

The target in another series is MKNK1 (Homo sapiens (Human), UniProt Q9BUB5). Put plainly: KINOMEscan competition binding assay. As to the method:
as §1

The target in a further series is MKNK2 (Homo sapiens (Human), UniProt Q9HBH9). Put plainly: KINOMEscan competition binding assay. As to the method: as §1
MKNK2, sequence (Q9HBH9 whole entry): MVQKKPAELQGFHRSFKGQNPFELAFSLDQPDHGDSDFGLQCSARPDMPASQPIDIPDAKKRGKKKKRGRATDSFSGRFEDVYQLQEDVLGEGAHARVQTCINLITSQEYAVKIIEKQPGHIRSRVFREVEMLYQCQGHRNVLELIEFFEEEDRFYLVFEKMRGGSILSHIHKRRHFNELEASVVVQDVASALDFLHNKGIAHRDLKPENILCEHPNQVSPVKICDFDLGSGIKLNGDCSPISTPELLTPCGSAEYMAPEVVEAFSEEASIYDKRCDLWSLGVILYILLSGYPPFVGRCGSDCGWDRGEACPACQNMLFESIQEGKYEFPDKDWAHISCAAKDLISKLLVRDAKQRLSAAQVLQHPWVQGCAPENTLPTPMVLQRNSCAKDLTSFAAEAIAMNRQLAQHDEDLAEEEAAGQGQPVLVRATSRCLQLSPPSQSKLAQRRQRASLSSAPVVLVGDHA
Another series addresses MST1R (Homo sapiens (Human), UniProt Q04912). In words: KINOMEscan competition binding assay. As to the method:
as §1

For a further series, the target named is NEK9 (Homo sapiens (Human), UniProt Q8TD19). In words: KINOMEscan competition binding assay. As to the method: as §1
NEK9, sequence (Q8TD19 whole entry): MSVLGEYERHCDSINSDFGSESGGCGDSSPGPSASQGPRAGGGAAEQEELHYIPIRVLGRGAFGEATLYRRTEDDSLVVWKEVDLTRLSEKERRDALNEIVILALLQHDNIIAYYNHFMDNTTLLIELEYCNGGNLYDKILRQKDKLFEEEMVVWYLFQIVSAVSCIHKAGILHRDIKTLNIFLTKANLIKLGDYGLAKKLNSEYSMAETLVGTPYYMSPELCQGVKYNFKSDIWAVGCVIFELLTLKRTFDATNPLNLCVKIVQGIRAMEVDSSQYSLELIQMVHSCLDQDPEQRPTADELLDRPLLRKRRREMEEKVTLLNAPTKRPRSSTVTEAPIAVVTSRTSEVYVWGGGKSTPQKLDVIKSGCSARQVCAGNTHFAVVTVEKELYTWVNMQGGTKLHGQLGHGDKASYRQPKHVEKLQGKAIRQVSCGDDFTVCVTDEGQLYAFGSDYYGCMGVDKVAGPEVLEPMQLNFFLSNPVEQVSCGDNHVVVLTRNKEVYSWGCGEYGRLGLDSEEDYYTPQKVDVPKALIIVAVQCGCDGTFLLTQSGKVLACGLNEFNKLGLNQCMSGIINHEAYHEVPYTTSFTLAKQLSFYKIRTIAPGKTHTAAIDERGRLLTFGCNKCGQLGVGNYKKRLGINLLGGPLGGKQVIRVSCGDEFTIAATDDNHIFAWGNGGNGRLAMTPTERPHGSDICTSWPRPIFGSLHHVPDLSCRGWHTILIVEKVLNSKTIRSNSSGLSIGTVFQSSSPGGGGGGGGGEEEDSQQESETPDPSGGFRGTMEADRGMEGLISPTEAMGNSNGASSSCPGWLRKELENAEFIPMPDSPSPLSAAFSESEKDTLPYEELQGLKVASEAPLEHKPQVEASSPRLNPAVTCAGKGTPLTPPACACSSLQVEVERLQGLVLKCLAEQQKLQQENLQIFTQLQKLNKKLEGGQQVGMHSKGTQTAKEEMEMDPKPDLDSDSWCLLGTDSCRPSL
For the next series, the target named is PLK4 (Homo sapiens (Human), UniProt O00444). Put plainly: KINOMEscan competition binding assay. As to the method:
as §1

The next series concerns the target TIE1 (Homo sapiens (Human), UniProt P35590). Put plainly: KINOMEscan competition binding assay. As to the method:
as §1

For the next series, the target named is TRKB (Homo sapiens (Human), UniProt Q16620). Put plainly: KINOMEscan competition binding assay. As to the method: as §1
TRKB, sequence (Q16620 32-822): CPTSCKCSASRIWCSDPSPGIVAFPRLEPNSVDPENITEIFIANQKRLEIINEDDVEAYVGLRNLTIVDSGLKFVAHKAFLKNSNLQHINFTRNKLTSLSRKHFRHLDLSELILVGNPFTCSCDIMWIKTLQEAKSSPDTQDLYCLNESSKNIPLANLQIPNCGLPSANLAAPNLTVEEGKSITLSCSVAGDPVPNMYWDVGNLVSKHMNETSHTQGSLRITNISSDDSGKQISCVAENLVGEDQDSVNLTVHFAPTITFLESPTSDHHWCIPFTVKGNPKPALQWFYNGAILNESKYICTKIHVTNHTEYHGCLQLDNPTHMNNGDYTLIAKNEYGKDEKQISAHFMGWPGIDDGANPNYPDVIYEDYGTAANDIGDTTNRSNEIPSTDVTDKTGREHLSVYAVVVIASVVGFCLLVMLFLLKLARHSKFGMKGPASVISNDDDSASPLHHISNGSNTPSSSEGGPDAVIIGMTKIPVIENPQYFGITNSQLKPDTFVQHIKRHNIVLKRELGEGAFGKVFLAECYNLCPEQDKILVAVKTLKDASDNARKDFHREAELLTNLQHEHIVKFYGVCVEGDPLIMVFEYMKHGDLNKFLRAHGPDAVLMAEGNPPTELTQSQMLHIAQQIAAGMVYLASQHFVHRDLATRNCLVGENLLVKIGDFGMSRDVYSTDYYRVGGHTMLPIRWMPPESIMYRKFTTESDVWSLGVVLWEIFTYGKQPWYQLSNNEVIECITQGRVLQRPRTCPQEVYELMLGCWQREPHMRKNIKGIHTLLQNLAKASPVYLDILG
The test system of another series is FLT3(ITD). In words: KINOMEscan competition binding assay. More on the design: species or system human. As to conditions: 2 μM. As to the method:
as §1

Series [1] can be described thus: Metabolic stability in liver microsomes. As to conditions: pH 7.4; for half-life at 1 µM: read-out: T½. Format: in vitro ADME. From the text:
According to standard methods conventional in the art for in vitro metabolic stability studies, for example those protocols described in Kems, Edward H. and Di Li (2008). Drug-like Properties: Concepts. Structure Design and Methods: from ADME to Toxicity Optimization. San Diego: Academic Press; Di, Li et al., Optimization of a Higher Throughput Microsomal Stability Screening Assay for Profiling Drug Discovery Candidates, J. Biomol. Screen. 2003, 8(4), 453., the metabolic stability test in liver microsomes of the present compound was performed analogously as follows.
The in vitro metabolic stability of the compound in 5 species (mouse, rat, dog, monkey, and human) was evaluated by liver microsomal stability test. 0.1M potassium phosphate buffer solution (pH 7.4, containing 1.0 mM EDTA) was prepared. The test compound and the control compound were prepared into a 10 mM DMSO solution, and then 10 μL of the 10 mM DMSO compound solution was added to 190 μL of acetonitrile to prepare a 500 μM compound solution. Liver microsomes (Sekisui XenoTech, LLC., human liver microsomes, cat. #H0610; Beagle dog liver microsomes, cat. #D1000; cynomolgus monkey liver microsomes, cat. #P2073; rat liver microsomes, cat. #R1073; mouse Liver microsomes, cat. #M1000) were taken and slowly melted on ice, then 18.75 μL of the liver microsome solution (20 mg/mL) and 1.5 μL of 500 μM compound solution were added to 479.75 μL of 0.1M potassium phosphate buffer solution to prepare a 0.75 mg/mL liver microsome working solution with a concentration of 1.5 μM compound. 6 mM NADPH (SIGMA, cat. #V900362) aqueous solution was prepared. 0.2 mL 2 mg/mL internal standard stock solution (imipramine solution in acetonitrile) was added to 1000 mL acetonitrile (SIGMA, cat. #271004) to prepare the reaction stop solution and stored at 4° C.
Six deep-well plates were labeled as T0, T5, T15, T30, T45 and NCF60 (negative control, without NADPH). 30 μL of […] control compound or test compound solution in 0.75 mg/mL liver microsome working solution was added to each well of the corresponding plates. After being sealed with film, all the microplates were placed in a 37° C. water bath to preheat for 5 minutes, and 6 mM NADPH solution was placed in a 37° C. water bath to preheat for 5 minutes. Then 15 μL of NADPH solution was added to each cell successively in reverse time order, that is, first adding the T45 plate, 15 minutes later the T30 plate, 15 minutes later again the T15 plate, and 10 minutes later gain the T5 plate. NCF60 plate was not added with NADPH but 15 μL of deionized water. At this time, to the TO plate were added 135 μL of ice-cooled reaction stop solution and 15 μL of NADPH solution. By the end of the reaction, 135 μL of ice-precooled reaction stop solution was added successively to each well of the T5, T15, T30, and T45 plates. All samples were centrifuged at 4° C. at 600 rpm for 10 minutes, and then at 5594 g for 15 minutes (Thermo Multifugex 3R). Six 96-well plates were respectively labeled and added 50 μL of ultrapure water (Millipore, ZMQS50F01) to each well, then 50 μL of the centrifuged supernatant was added to the corresponding well of the corresponding plate, for LC-MS/MS-014 (API4000), UPLC-MS/MS-11 (API4000), LC-MS/MS-034 (API-6500+) analysis. The concentration (C0) of the test compound at TO time point was taken as 100%, and the concentrations at other incubation time points were converted into residue percentages.
The natural logarithm of the residue percentage at each time point was subjected to linearly regression as a factor of incubation time to obtain Slope k, and then the liver microsome clearance rate (CLint^mic) and in vitro half-life (T½) were calculated according to the following formula: […]
For orientation: Liver microsomes are a subcellular fraction often used to study metabolism.

MET, sequence (P08581 25-1390): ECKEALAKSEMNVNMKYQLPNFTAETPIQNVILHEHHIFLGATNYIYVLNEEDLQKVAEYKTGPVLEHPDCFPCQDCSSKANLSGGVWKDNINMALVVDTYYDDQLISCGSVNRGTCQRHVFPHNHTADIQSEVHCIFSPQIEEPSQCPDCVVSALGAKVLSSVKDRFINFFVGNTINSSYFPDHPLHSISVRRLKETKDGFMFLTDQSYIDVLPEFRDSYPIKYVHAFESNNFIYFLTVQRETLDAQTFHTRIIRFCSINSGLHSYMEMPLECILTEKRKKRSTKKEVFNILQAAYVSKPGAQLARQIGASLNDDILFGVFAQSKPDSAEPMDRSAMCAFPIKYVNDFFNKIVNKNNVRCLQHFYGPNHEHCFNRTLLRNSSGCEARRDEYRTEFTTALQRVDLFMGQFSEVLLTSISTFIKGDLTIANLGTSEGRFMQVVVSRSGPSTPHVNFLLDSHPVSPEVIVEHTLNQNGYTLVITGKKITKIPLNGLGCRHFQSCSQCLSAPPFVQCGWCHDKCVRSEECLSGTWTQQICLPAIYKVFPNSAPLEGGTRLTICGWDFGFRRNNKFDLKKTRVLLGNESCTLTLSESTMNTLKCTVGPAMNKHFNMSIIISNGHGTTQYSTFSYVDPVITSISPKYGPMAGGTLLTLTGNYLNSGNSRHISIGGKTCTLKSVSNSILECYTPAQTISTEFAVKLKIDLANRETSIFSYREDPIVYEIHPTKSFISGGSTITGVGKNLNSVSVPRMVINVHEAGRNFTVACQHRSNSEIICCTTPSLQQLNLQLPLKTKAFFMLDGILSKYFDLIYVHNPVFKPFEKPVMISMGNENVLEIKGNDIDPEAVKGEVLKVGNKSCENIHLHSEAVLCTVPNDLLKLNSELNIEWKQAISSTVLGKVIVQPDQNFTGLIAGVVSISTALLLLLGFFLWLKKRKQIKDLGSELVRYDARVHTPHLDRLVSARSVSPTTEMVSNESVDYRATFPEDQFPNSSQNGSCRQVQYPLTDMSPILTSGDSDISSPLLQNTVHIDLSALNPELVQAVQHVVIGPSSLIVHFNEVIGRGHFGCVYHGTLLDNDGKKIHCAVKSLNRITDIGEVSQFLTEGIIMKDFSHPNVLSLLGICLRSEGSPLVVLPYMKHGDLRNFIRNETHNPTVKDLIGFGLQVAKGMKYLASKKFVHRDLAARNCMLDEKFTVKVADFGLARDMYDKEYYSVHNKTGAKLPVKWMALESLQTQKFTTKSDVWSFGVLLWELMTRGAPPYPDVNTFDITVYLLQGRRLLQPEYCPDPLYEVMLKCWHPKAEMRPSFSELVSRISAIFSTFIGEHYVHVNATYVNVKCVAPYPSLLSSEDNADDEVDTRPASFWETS
MKNK1, sequence (Q9BUB5 whole entry): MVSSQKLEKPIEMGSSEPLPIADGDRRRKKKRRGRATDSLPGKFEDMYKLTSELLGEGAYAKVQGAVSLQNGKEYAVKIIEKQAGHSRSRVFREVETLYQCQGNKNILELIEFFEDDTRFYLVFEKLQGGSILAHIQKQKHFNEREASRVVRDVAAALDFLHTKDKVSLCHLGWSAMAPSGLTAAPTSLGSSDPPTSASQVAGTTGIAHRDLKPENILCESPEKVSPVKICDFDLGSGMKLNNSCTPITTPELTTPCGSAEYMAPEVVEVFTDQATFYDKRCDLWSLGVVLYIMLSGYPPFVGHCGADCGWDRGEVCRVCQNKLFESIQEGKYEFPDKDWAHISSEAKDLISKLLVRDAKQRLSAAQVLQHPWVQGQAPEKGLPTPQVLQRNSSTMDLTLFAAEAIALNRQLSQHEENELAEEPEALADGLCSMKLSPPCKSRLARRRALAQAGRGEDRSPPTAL
IKK-beta, sequence (O14920 whole entry): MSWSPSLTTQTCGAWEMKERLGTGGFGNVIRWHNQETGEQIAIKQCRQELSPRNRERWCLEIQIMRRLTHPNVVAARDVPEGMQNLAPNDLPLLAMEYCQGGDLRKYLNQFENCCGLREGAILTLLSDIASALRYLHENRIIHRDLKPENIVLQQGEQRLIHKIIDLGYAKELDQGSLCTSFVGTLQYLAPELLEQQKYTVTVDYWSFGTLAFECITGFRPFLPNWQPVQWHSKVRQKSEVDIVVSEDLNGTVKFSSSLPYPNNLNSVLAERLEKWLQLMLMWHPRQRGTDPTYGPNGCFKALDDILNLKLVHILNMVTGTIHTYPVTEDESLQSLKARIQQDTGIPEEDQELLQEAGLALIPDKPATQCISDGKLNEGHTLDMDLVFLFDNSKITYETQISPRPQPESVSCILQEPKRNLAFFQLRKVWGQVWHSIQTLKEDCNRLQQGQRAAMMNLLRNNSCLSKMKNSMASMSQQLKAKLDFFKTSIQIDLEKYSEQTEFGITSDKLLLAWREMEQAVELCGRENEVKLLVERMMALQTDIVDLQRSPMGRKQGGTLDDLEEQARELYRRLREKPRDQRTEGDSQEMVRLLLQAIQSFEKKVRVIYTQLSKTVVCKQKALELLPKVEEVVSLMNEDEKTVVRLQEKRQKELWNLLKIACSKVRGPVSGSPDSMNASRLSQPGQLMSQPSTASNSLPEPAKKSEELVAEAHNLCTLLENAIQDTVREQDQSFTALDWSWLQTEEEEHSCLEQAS

With `COc1ccc(C(=O)Nc2ccc(Oc3cc4cnn(C)c4cc3-c3cn[nH]c3)c(F)c2)c(=O)n1-c1ccc(F)cc1` [Example 12, N-(3-fluoro-4-(1-methyl-6-(1H-pyrazol-4-yl)-1H-indazol-5-yloxy)phenyl)-1-(4-fluorophenyl)-6-methoxy-2-oxo-1,2-dihydropyridine-3-carboxamide], the inhibition at 2 µM turned out to be 95% at BLK; 100% on CDKL2; 100% at FLT3(N841I); 97% at IKK-beta; 97% on LCK; 97% on MERTK. The inhibition at 2 µM came to 93% on MET; 95% on MKNK1; 100% at MKNK2; 98% at MST1R; 95% on NEK9; 90% at PLK4. Besides, the inhibition at 2 µM worked out at 99% at TIE1 and 94% at TRKB. Besides, the “% inhibition” value with FLT3(ITD) came out at 98%. Also, the CLint scaled at 1 µM in series [1] (Beagle, dog liver microsomes) stood at 46.5 mL/min/kg; in series [1] (human liver microsomes), 6.03 mL/min/kg; in series [1] (mouse liver microsomes), 63.3 mL/min/kg; in series [1] (rat liver microsomes), 74.4 mL/min/kg. Also, the half-life at 1 µM in series [1] (Beagle, dog liver microsomes) was 1.24 h; in [1] (human liver microsomes), 4.81 h; in series [1] (mouse liver microsomes) it was 0.653 h; in series [1] (rat liver microsomes), 1.22 h.
Regarding `Cc1ccc(C(=O)Nc2ccc(Oc3cc4cnn(C)c4cc3-c3cn[nH]c3)c(F)c2)c(=O)n1-c1ccc(F)cc1` [Merestinib, reference compound], the intrinsic metabolic clearance (CLint scaled) at 1 µM worked out at 38.4 mL/min/kg in [1] (Beagle, dog liver microsomes); 22 mL/min/kg in series [1] (human liver microsomes); 90.3 mL/min/kg in series [1] (mouse liver microsomes); 105 mL/min/kg in series [1] (rat liver microsomes). The half-life at 1 µM in [1] (Beagle, dog liver microsomes) worked out at 1.5 h; in [1] (human liver microsomes) it was 1.32 h; in series [1] (mouse liver microsomes), 0.459 h; in series [1] (rat liver microsomes), 0.867 h.

Broadly, the inhibition is the relative decrease from the control value, in per cent. A lower inhibition goes with a response near the control. For orientation: % inhibition means the share of the control response that was lost under treatment. A higher % inhibition goes with strong suppression. What is called CLint scaled is the capacity of the preparation to metabolise the compound, expressed as a volume cleared per time. Read a low CLint scaled as greater metabolic stability.
